These results are taken from ChEMBL document CHEMBL3507680, “University of Dundee, Gates Library screen for HepG2 cell viability”.

SMILES strings stand for the structures.

A short description of this series: Human HepG2 cell viability assay in 384 well format. The format is toxicity, cell-based. Set-up: dose 125 nL, time 70.5 hour; cytotoxicity at 70.5 h: concentration not given beside the values. The settings on record: HepG2 cells, read-out: Inhibition.
Turning to `Cc1cc(CN2CCC(CNS(=O)(=O)c3ccc(C)s3)CC2)c(C)o1`, the cytotoxicity at 70.5 h is -5.87%.

With `O=C(Oc1ccccc1)N1CCC(CNS(=O)(=O)c2cccnc2)CC1`, the cytotoxicity at 70.5 h stood at 20.9%.

As to `COc1ccc(S(=O)(=O)NCCCc2ccc(N(C)C)cc2)cc1Cl`, the cytotoxicity at 70.5 h was -3.09%.

For `O=C(Cc1ccc(F)cc1)NCC1CCN(Cc2ccsc2)CC1`, the cytotoxicity at 70.5 h was -3.3%.

For `CCSc1ccccc1C(=O)NCC1CCN(Cc2ccsc2)CC1`, the cytotoxicity at 70.5 h is 2.8%.

As to `Cc1nnsc1C(=O)NCC1CCN(c2ccccn2)CC1`, the cytotoxicity at 70.5 h is -8.36%.

As for `COC(=O)N1CCC(CNC(=O)C2CC2)CC1`, the cytotoxicity at 70.5 h was -18.1%.

As to `O=C(CC1CCCC1)NCCS(=O)(=O)N1CCN(c2ncccn2)CC1`, the cytotoxicity at 70.5 h is -11%.

As for `Cc1nnc2ccc(OCCNS(C)(=O)=O)nn12`, the cytotoxicity at 70.5 h is -0.867%.

In the case of `Cc1ccc(S(=O)(=O)NCCOc2ccc3nnc(C)n3n2)s1`, the cytotoxicity at 70.5 h was -14.5%.

For the compound `CCc1nnc2ccc(N3CCN(S(=O)(=O)c4ccc(Cl)s4)CC3)nn12`, the cytotoxicity at 70.5 h was -19%.

In the case of `CCc1nnc2ccc(N3CCN(S(=O)(=O)c4ccc(C)s4)CC3)nn12`, the cytotoxicity at 70.5 h was -21.3%.

Consider `CN(C)C(CNS(=O)(=O)c1cc(F)ccc1F)c1cccn1C` (stereo not given), for which the cytotoxicity at 70.5 h was -11.3%.

Consider `CCc1cc(=O)[nH]c(-n2nc(C3CC3)cc2NC(=O)C2CC2)n1`, for which the cytotoxicity at 70.5 h worked out at 42.7%.

Regarding `O=C(O)C(c1ccc2c(c1)OCCO2)N1CCCC1` (stereo not given), the cytotoxicity at 70.5 h is -3.29%.

For `CN(CC1(CO)CCCC1)C(=O)c1cc(COc2ccccc2F)[nH]n1`, the cytotoxicity at 70.5 h is -6.26%.

Regarding `Cc1ncccc1OC1(C(=O)NCCC2CCCN2C)CCNCC1` (stereo not given), the cytotoxicity at 70.5 h came out at 13.7%.

On to `CN(C)C(=O)N1C[C@@H]2CC[C@H](C1)N(C/C=C/c1ccc(F)cc1)C2`, for which the cytotoxicity at 70.5 h was -9.21%.

As for `O=C(O)CC[C@@H]1CN(c2ccncc2)CC[C@@H]1N1CCOCC1`, the cytotoxicity at 70.5 h was -3.32%.

Take `CCN(CC)C(=O)[C@@H]1C[C@H](n2cc(-c3ccccn3)nn2)CN1`: the cytotoxicity at 70.5 h came to 12%.

For `COc1cccc([C@@H]2CCN(Cc3c[nH]c(C)n3)C[C@H]2O)c1`, the cytotoxicity at 70.5 h was found to be 17.7%.

As for `CC1(COc2ccccc2)NCCc2[nH]cnc21` (stereo not given), the cytotoxicity at 70.5 h was -2.27%.

For the compound `O=C(NCc1nncn1C1CCCCC1)C1COc2ccccc2C1` (stereo not given), the cytotoxicity at 70.5 h was -4%.

As to `O[C@H]1CN(c2nc(-c3ccccc3)no2)C[C@@H]1N1CCOCC1`, the cytotoxicity at 70.5 h came to 6.13%.

Regarding `COc1cccc2c1OCC(NCCc1cnn(-c3ccccc3)c1)C2` (stereo not given), the cytotoxicity at 70.5 h was -8.4%.

With `O=S1(=O)C[C@@H]2[C@H](C1)N(S(=O)(=O)N1CCCC1)CCN2Cc1ccccc1`, the cytotoxicity at 70.5 h is -5.47%.

`CCCc1nnc(N2CCC3(CC2)CC(=O)NC(=O)C3)o1`: the cytotoxicity at 70.5 h was determined as 24.4%.

As to `Cc1ccc(C)c(C(=O)N2CCC3(CCC(=O)N(CC(N)=O)C3)CC2)c1`, the cytotoxicity at 70.5 h stood at 29.9%.

In the case of `Cc1[nH]ccc1C(=O)N1CCN(C)C2(CCC(=O)N(C)CC2)C1` (stereo not given), the cytotoxicity at 70.5 h was -11.2%.

`CN(CC(=O)N1CC(C)(C)[C@](O)(C2CC2)C1)Cc1ccncc1`: the cytotoxicity at 70.5 h is -3.61%.

For the compound `Cc1ccccc1SC1CCN(C(=O)C2CNC(=O)N2)CC1` (stereo not given), the cytotoxicity at 70.5 h was determined as 2.9%.

As to `O=C(NCCN1CCNC1=O)c1cnc(-c2cccnc2)nc1`, the cytotoxicity at 70.5 h is -3.28%.

With `CNc1ncccc1C(=O)N1CCc2c(nc(N)[nH]c2=O)C1`, the cytotoxicity at 70.5 h was -3.13%.

For the compound `O=C(Cc1ccccc1C(F)(F)F)N1CCC2(CC1)OCCCC2O` (stereo not given), the cytotoxicity at 70.5 h was -16.7%.

In the case of `COCCCC1(CO)CCCN(Cc2nccs2)C1` (stereo not given), the cytotoxicity at 70.5 h was -7.41%.

Regarding `CC(C)(C)CC(=O)NS(=O)(=O)c1ccc(C#N)cc1C(F)(F)F`, the cytotoxicity at 70.5 h is 13.5%.

On to `COc1ccc(Cl)cc1NCC(=O)NCCNc1ncccn1`, for which the cytotoxicity at 70.5 h was -2.38%.

Regarding `Cn1ccnc1CN1CCN(CC(=O)NCc2ccccc2F)CC1`, the cytotoxicity at 70.5 h was 1.39%.

As for `Cn1ccnc1CN1CCN(CC(=O)NCc2cccs2)CC1`, the cytotoxicity at 70.5 h was 13.9%.

`Cc1nnc(CN(Cc2ccc3c(c2)OCO3)C2CCCCC2)o1`: the cytotoxicity at 70.5 h is -2.59%.

For the compound `Cc1nnc(CN(Cc2ccc3c(c2)OCO3)C2CCC(C)CC2)o1` (stereo not given), the cytotoxicity at 70.5 h was -1.97%.

As to `CCOc1ccnc(N2CCN(C(=O)c3ccn(C)c(=O)c3)CC2)n1`, the cytotoxicity at 70.5 h was -1.73%.

Regarding `Cc1cnn(CC2CCCN2Cc2nnc(C3CC3)o2)c1` (stereo not given), the cytotoxicity at 70.5 h came out at 13.5%.

For `Cc1ccccc1CNC(=O)C1CCN(Cc2nccn2C)CC1`, the cytotoxicity at 70.5 h was -0.376%.

Take `COc1ccc(CNCC2CCN(c3ccccc3OC)C2)cc1O` (stereo not given): the cytotoxicity at 70.5 h was 5.43%.

Consider `c1cc2c(cc1CN(Cc1nc(C3CC3)no1)C1CCCC1)OCO2`, for which the cytotoxicity at 70.5 h is 6.65%.

For the compound `Cc1cccc(CN2CCC(N(C)Cc3nnc(C4CC4)n3C)C2)c1` (stereo not given), the cytotoxicity at 70.5 h was -1.59%.

Consider `CN(Cc1nnc(C2CC2)n1C)C1CCN(Cc2ccncc2)C1` (stereo not given), for which the cytotoxicity at 70.5 h is -2.37%.

As for `CC(C)c1noc(C(C)N2CCN(CCCN3CCCC3=O)CC2)n1` (stereo not given), the cytotoxicity at 70.5 h is -0.928%.

In the case of `Cc1ccc(NC2CCN(C(=O)C(C(C)C)n3cncn3)CC2)nn1` (stereo not given), the cytotoxicity at 70.5 h was -4.96%.

With `COc1ccc(CN(Cc2nc(C)no2)C2CCCCC2)cc1OC`, the cytotoxicity at 70.5 h was -1.31%.

`CC(C(=O)N1CCC(Nc2cccnn2)CC1)n1cccn1` (stereo not given): the cytotoxicity at 70.5 h worked out at 20.4%.

As for `Cc1nnc(C(C)N2CCCN(Cc3ccc(F)cc3)CC2)o1` (stereo not given), the cytotoxicity at 70.5 h was -2.19%.

As to `c1ccc(Cc2nnc(CN3CCCC3Cn3cccn3)o2)cc1` (stereo not given), the cytotoxicity at 70.5 h was -1.31%.

Take `Cc1nn(CC(C)C)c(N(C)C)c1CNCc1ccnn1C`: the cytotoxicity at 70.5 h was determined as 28.6%.

Take `CC(C(=O)N1CCCN(Cc2cnn(C(C)C)c2)CC1)n1ccnc1` (stereo not given): the cytotoxicity at 70.5 h came to 23.5%.

As to `Cc1cnn(C2CCCN(C(=O)CCCn3ccnc3C)C2)c1` (stereo not given), the cytotoxicity at 70.5 h was found to be 19.3%.

Regarding `CC1COCCN1Cc1nc(-c2ccc(F)cc2)no1` (stereo not given), the cytotoxicity at 70.5 h was -0.197%.

Regarding `CC(C)n1cc(CN2CCCN(C(=O)CC3CCCCC3)CC2)cn1`, the cytotoxicity at 70.5 h is -0.435%.

For the compound `Cc1nc(C)n(CC2CCCN(Cc3cccc(F)c3F)C2)n1` (stereo not given), the cytotoxicity at 70.5 h is 2.26%.

For the compound `COc1cccc(CN2CCCC(Cn3nc(C)nc3C)C2)c1` (stereo not given), the cytotoxicity at 70.5 h is -1.83%.

As for `CC(C)c1cnc(CN2CCCC(c3cc(C(N)=O)[nH]n3)C2)o1` (stereo not given), the cytotoxicity at 70.5 h came to 2.28%.

On to `Cc1cnn(C2CCCN(C(=O)CCc3cscn3)C2)c1` (stereo not given), for which the cytotoxicity at 70.5 h was determined as 2.26%.

Take `COc1c(CNCc2ccccc2Cn2ccnc2)c(C)nn1C`: the cytotoxicity at 70.5 h is -0.234%.

As to `COc1c(CNCc2cccc(Cn3cccn3)c2)c(C)nn1C`, the cytotoxicity at 70.5 h stood at 3.69%.

Regarding `CC(C(=O)NCc1ccc(N2CCCCCC2)nc1)n1cncn1` (stereo not given), the cytotoxicity at 70.5 h worked out at 3.18%.

In the case of `CC(C(=O)NCc1ccc(N2CCCCC2)nc1)n1cncn1` (stereo not given), the cytotoxicity at 70.5 h was -3.82%.

For the compound `Cc1cccc(-c2ccc(C(=O)NCC3CCCO3)c(=O)[nH]2)c1` (stereo not given), the cytotoxicity at 70.5 h was -10.2%.

As for `COc1c(CNCc2ccc(Cn3ccnc3)cc2)c(C)nn1C`, the cytotoxicity at 70.5 h is 0.712%.

Consider `Cc1cnn(C2CCCN(C(=O)CCNS(C)(=O)=O)C2)c1` (stereo not given), for which the cytotoxicity at 70.5 h stood at 24.7%.

`CCc1nnc(CN2CCCC(c3cc(C(N)=O)[nH]n3)C2)o1` (stereo not given): the cytotoxicity at 70.5 h was -6.39%.

In the case of `CC(NCc1ccccc1Cl)c1ccc2[nH]c(=O)[nH]c2c1` (stereo not given), the cytotoxicity at 70.5 h turned out to be 7.48%.

Turning to `Cc1nn(CCO)c(C)c1CNCc1cccnc1N(C)C`, the cytotoxicity at 70.5 h was -4.11%.

Regarding `Cc1n[nH]c(C)c1C1COCCN1C(=O)c1ccc(Cl)o1` (stereo not given), the cytotoxicity at 70.5 h was determined as 18%.

`Cc1ncsc1C(=O)N(Cc1ccccn1)C1CC1`: the cytotoxicity at 70.5 h stood at 10%.

Turning to `Cc1cc(CNc2cc(Cl)ccc2C)no1`, the cytotoxicity at 70.5 h was -11.6%.

On to `Cc1cc(CNc2ccccc2Cl)no1`, for which the cytotoxicity at 70.5 h was -13.4%.

On to `CCC(N)c1ccccc1OCC(=O)N1CCCC1` (stereo not given), for which the cytotoxicity at 70.5 h is -7.75%.

For `Cc1ccccc1CC(=O)N1CCOCC1c1c(C)n[nH]c1C` (stereo not given), the cytotoxicity at 70.5 h was -6.23%.

Take `c1ccc(-n2nc(CNC3CCc4ncnn4C3)c3c2CCC3)cc1` (stereo not given): the cytotoxicity at 70.5 h came to 9.35%.

Consider `COc1ccccc1C(=O)N1CCOCC1c1c(C)n[nH]c1C` (stereo not given), for which the cytotoxicity at 70.5 h is -15.2%.

For the compound `CC(C)c1nnc(CN2CCCC(Cn3cncn3)C2)o1` (stereo not given), the cytotoxicity at 70.5 h was -7.64%.

As to `Cc1ncsc1C(=O)N(Cc1cccs1)C1CC1`, the cytotoxicity at 70.5 h is -16.1%.

Turning to `CCc1nc2n(n1)CC(NCc1cnn(-c3ccccc3)n1)CC2` (stereo not given), the cytotoxicity at 70.5 h was -9.79%.

On to `c1ncn(CC2CCCN(Cc3nnc(C4CC4)o3)C2)n1` (stereo not given), for which the cytotoxicity at 70.5 h is 11.5%.

Turning to `COc1ncccc1CNC(=O)c1cnccn1`, the cytotoxicity at 70.5 h was -12.4%.

For `COc1ncccc1CNC(=O)c1cnc(C)cn1`, the cytotoxicity at 70.5 h was -3.16%.

As to `CCC(NC(=O)c1ccoc1)c1ccccc1OCC(=O)N1CCCC1` (stereo not given), the cytotoxicity at 70.5 h was -3.93%.

As for `Cc1ccccc1C1(C(=O)NCCN(C(C)C)C(C)C)CCOCC1`, the cytotoxicity at 70.5 h is -10%.

Turning to `O=C(NCCN1CCCC1)C1(c2ccc(Cl)cc2)CCOCC1`, the cytotoxicity at 70.5 h is -3%.

Consider `Cc1ccc(NC(=O)C2CSCN2C(=O)c2cnsn2)c(C)c1` (stereo not given), for which the cytotoxicity at 70.5 h is -6.91%.

On to `Cc1ccc(NC(=O)C2CSCN2C(=O)c2ccncc2)c(C)c1` (stereo not given), for which the cytotoxicity at 70.5 h is -4.2%.

Consider `CC(C)c1ccc(OCCNC(=O)N2CCS(=O)(=O)CC2)cc1`, for which the cytotoxicity at 70.5 h is -2.35%.

For `Cc1cnn(C2CCCN(C(=O)c3ccccc3-n3cnnn3)C2)c1` (stereo not given), the cytotoxicity at 70.5 h was -3.2%.

As for `Cc1ccc(O)c(C(=O)N2CCOCC2c2c(C)n[nH]c2C)c1` (stereo not given), the cytotoxicity at 70.5 h was -1.53%.

In the case of `CCN(CCCNCc1c(C)nn(C)c1N(C)C)S(C)(=O)=O`, the cytotoxicity at 70.5 h came to 4.83%.

With `O=C(CCOc1ccccc1F)N1CCCC(n2cncn2)C1` (stereo not given), the cytotoxicity at 70.5 h turned out to be 6.03%.

Turning to `Cc1ccccc1OCCCC(=O)N1CCCC(n2cncn2)C1` (stereo not given), the cytotoxicity at 70.5 h is 13%.

As to `Cn1ccnc1N1CCN(C(=O)Cc2ccc(Cl)cc2)CC1`, the cytotoxicity at 70.5 h was -1.94%.

Consider `Cc1cc(C(=O)N2CCN(C)CC2)nn1CC(=O)NCc1ccccn1`, for which the cytotoxicity at 70.5 h was -8.07%.
